Reference: patent US20250319063A1, “METHODS AND COMPOUNDS FOR RESTORING MUTANT P53 FUNCTION” (PMV PHARMACEUTICALS, INC., priority 2022, published 2025)
“Also recorded” adds a separate entry of the source. Where two headings read alike, the source gives them in different places.

Assays:
[1] = Pharmacokinetic analysis of patient plasma (LC/MS/MS, noncompartmental analysis); format: in vivo; details: for half-life: human, plasma
From the text: Serial blood samples for PK assessments were collected from all patients, including adolescents. Serial blood samples from all patients were also collected for PDc assessment of response to Compound 1. Pre- and on-treatment tumor biopsies for PDc assessment were optional. The relationship between plasma Compound 1 concentrations and pharmacodynamic biomarkers of response were explored. When the MTD was established, this cohort was expanded up to 12 patients. At least one additional cohort at a total daily dose below the MTD and considered to be active were expanded up to 12 patients. These expanded cohorts provided additional information about the relationship between dose, safety/tolerability, and efficacy to inform the selection of RP2D. Data from Phase 1 are reviewed to assess the benefit-risk for each dose level when selecting RP2D. The RP2D is determined as the dose resulting in the best therapeutic window for Compound 1 based on the review of all available safety, PK, PDc, and preliminary efficacy data. The RP2D can be the same as the MTD or below the MTD.
Compound 1 concentration data were summarized by dose level and Study Day using nominal time points. Individual and mean concentrations versus nominal time plots were presented by dose level. Pharmacokinetic parameter values were derived by non-compartmental methods by a validated pharmacokinetic analysis program. Actual times were used for all formal analyses. PK parameters were summarized by dose level. Individual values were listed for each PK parameter (e.g., Cmax, Tmax, AUC0-T, AUCtau, Ctrough/Ctau, accumulation ratios) by dose level, and the following (non-model-based) descriptive statistics were provided: N (number of patients with non-missing data), arithmetic mean, standard deviation, arithmetic percent coefficient of variation (CV) (calculated as 100×standard deviation/arithmetic mean), median, minimum, maximum, geometric mean, and geometric percent CV (calculated as: […]
Plasma samples were analyzed for levels of Compound 1 via a validated LC/MS/MS method. The concentration data were analyzed using Phoenix version 8.2 via noncompartmental analysis.

[2] = tested on: Prostate-Specific Antigen; assay: Prostate-Specific Antigen (PSA) assessment in CRPC patients; format: in vivo, human; details: metastatic castration-resistant prostate cancer patient, 2,000 mg QD (Example 10)
Experimental: Patient cohorts 1 through 3 were administered with 150 mg QD to 600 mg QD of Compound 1. Patient cohorts 4 through 7 were administered with 1150 mg QD to 1500 mg BID of Compound 1. The same methods of assessment (e.g., CT, MRI, bone scan) and the same technique were used at baseline and throughout the study to ensure comparability. Scans were performed immediately following bolus contrast administration using a standard volume of contrast, an identical contrast agent, and preferably the same scanner. Where appropriate (i.e., part of standard of care and clinically indicated), fluorodeoxyglucose-positron emission tomography (FDG PET) data were also obtained. In addition, patients with Castration-resistant prostate cancer (CRPC) had Prostate-Specific Antigen (PSA) assessments within 7 days of imaging assessments.

CNC(=O)c1ccc(NCC#Cc2cc3c(N[C@@H]4CCN(C)C[C@@H]4F)cccc3n2CC(F)(F)F)c(OC)c1 [Compound 1, 4-((3-(4-(((3S,4R)-3-fluoro-1-methylpiperidin-4-yl)amino)-1-(2,2,2-trifluoroethyl)-1H-indol-2-yl)prop-2-yn-1-yl)amino)-3-methoxy-N-methylbenzamide]
Exposures ([1]; 2,000 mg QD, 2,500 mg QD, and 1,500 mg BID dose groups): Exposures were efficacious
half-life ([1]; oral, patients, Day 15, read-out: Median half-life (converted)): 19 h
half-life ([1]; patients, oral QD or BID dosing, read-out: Half-lives): 10 to 34 h
dose proportionality of exposure ([1]; patients, Day 1 through D15): dose proportional increases in Cmax and AUC values; also recorded: linear PK over the therapeutic dose range
PSA response (decrease) [2]: > 50%
maximum tolerated dose (Phase 1 dose escalation): 1500 mg BID
daily dose tolerated (female, human, in vivo): ≤ 2,500 mg
Diarrhea (TRAE), patients (human, in vivo): 5 n
Most frequent treatment-related AEs (>15%) (human, in vivo): nausea, vomiting, AST/ALT increase, anemia, blood creatinine increase, and fatigue
Vomiting (TRAE), patients (human, in vivo): 5 n
daily dose tolerated (human, in vivo): ≤ 2,000 mg
tolerance of treatment (human, in vivo): overall good tolerance of treatment with mild nausea and elevated LFTs that resolved with steroids
Dose limiting toxicities (human, in vivo, 21 days): Grade 3 AST/APT increase and grade 3 acute kidney injury
